Measurements from paper PMC8234734, “Pharmacokinetics and Molecular Modeling Indicate nAChRα4-Derived Peptide HAEE Goes through the Blood–Brain Barrier” (Biomolecules, 2021).

Columns and labels:
[1] = Distribution of HAEE in mouse tissues after i.p. bolus; assay type: in vivo; conditions: mice, i.p. bolus 300 μg/kg
Protocol: In the experiments on mice (Table 1, experimental group 6), a mixture of HAEE and [^3H]HAEE (50 µCi, at a dose of 300 µg/kg) in 200 µL of saline solution was injected intraperitoneally. The animals were decapitated at the end of the period specified by the protocol; blood and studied tissues were collected in weighed plastic tubes, frozen with liquid nitrogen and weighed. When calculating the volumetric concentrations of the total amount of the HAEE peptide (labeled, unlabeled or their mixture) in the blood, the density of the blood was taken equal to 1.056 g/mL [12].
All quantitative values are given as means ± standard deviation.
Within the study, bioavailability of HAEE for several organs and tissues was analyzed with i.p. bolus administration to mice at a dose of 300 μg/kg. The quantity of HAEE in the blood, brain, kidneys, liver, heart and omentum was determined at 2, 4, 6, 10, 15 and 20 min after peptide administration. For all tissues, similar changes in the concentrations of HAEE over time were observed (Figure 3A–C). These were characterized by a bimodal relationship with peaks at 4 and 10–15 min.
Tissue bioavailability of HAEE for the brain was about 3%, which is typical for most pharmacological substances. […] This may indicate accumulation of HAEE in the brain parenchyma due to its active transfer through the BBB and further binding and retention at the affinity sites of neuronal protein targets.

rats = test: Observation of toxic effects after repeated administration to rats; conditions: administered repeatedly (daily for 28 days, 300 μg/kg)
[2] = Pharmacokinetics of HAEE in rat blood after single i.v. bolus (dose dependence, chronic administration); conditions: for Cmax (maximum concentration in the blood) / AUC(0–∞) / T1/2(el) (elimination half-life) / Tmax: rat blood; for Cmax (maximum concentration in the blood): n = 6, sampling 2-30 min; for AUC(0–∞) / T1/2(el) (elimination half-life) / Tmax / ClT (total body clearance) / Kel (elimination rate constant, central compartment) / MRT (residence time) / Vd(c) (volume of distribution in the central compartment at Cmax) / Vd(extrap) / Vd(β) (volume of distribution in the elimination phase): n = 6
Protocol: In experiments on rats (Table 1, experimental groups 2–5), intravenous (i.v.) administration of the peptide and blood sampling were performed through the jugular veins. For this, in rats anesthetized with a mixture of ketamine (91 mg/kg) and xylazine (9.1 mg/kg), on the ventral side, in the area adjacent to the forelimbs and neck, two longitudinal skin incisions about 2.5 cm long were made on the right and left, and the jugular veins were dissected. An intravenous Flexicath G24 catheter (for heparin and peptide administration) (Medica LLC, Ivanovo, Russia) was installed in the left jugular vein and Flexicath G22 (for blood collection) in the right jugular vein. To prevent blood coagulation, 80 μL of heparin (5000 I.U./mL) was injected through the Flexicath G24 port before the injection of the peptide, and after 5 min a mixture of HAEE and [^3H]HAEE (400 μCi, in doses of 50, 300 or 900 μg/kg) in 200 μL of saline solution was injected for 10–15 s. Following that, after 2, 4, 6, 10, 20 and 30 min, approximately 0.3 mL of venous blood was collected into pre-weighed plastic tubes. After collection, the blood tubes were immediately frozen in liquid nitrogen and weighed. Before the pharmacokinetic study, rats in experimental group 5 were injected daily with i.p. peptide HAEE at a dose of 300 μg/kg for 28 days.
Frozen and weighed tissue samples in plastic tubes were freeze-dried for 48 h. The freeze-dried tissue samples were heated at 65 °C for 30 min, after which they were homogenized, and the peptide fraction was extracted with 90% aqueous acetonitrile containing 1% TFA [13]. To facilitate HPLC analysis of radioactively labeled HAEE and normalize the loss of the peptide during extraction, 10 μg of HAEE was added to the extraction solution for each sample. After centrifugation, the solution containing HAEE and blood components was dried under reduced pressure, stripped with methanol and re-centrifuged. The resulting solution containing a mixture of HAEE and [^3H]HAEE was subjected to evaporation under reduced pressure, re-extraction with 0.1% aqueous TFA solution and subsequent centrifugation. Quantitative analysis of the HAEE peptide was performed using HPLC on a Kromasil C18 column, 4 × 150 mm (Nouryon-Separation Products, Bohus, Sweden) in methanol concentration gradient (12–26% for 13 min), in 0.1% HFBA (heptafluorobutyric acid). The fraction containing the HAEE peptide was collected and its [^3H]HAEE content was determined by liquid scintillation counting. The obtained radioactivity value was normalized to the area of the HAEE peak in the chromatogram (UV absorbance at 220 nm).
To calculate the pharmacokinetic parameters, we used the values of HAEE peptide concentrations in blood and tissues averaged over three (rabbit) or six (rats and mice) animals. All quantitative values are given as means ± standard deviation. The calculation of pharmacokinetic parameters was performed by combining the model and non-model approaches using the software Borgia 1.03 (NPP Nauka Plus, Rovno, Ukraine) and SigmaPlot 11.0 (Systat Software, San Jose, CA, USA).

[3] = blood, brain, kidneys, liver, heart, omentum
[4] = single i.v. bolus 300 μg/kg after a 28 day course of unlabeled HAEE 300 μg/kg/day
[5] = rat, i.v. bolus, range over doses of 50, 300 and 900 µg/kg
[6] = rat, single i.v. bolus 50 μg/kg
[7] = rat, single i.v. bolus 300 μg/kg after a 28 day course of unlabeled HAEE 300 μg/kg/day
[8] = rat, single i.v. bolus 300 μg/kg
[9] = rat, single i.v. bolus 900 μg/kg

For Acetyl-His-Ala-Glu-Glu-Amide [HAEE], the “AUC(0–20), blood” value ([1]; blood, 0–20 min, n = 6 per time point, [3H]HAEE) was 2110 (ng/g) × min, the “fT × 100%, brain” value ([1]; brain) was “about 3%” and the “AUC(0–20), brain” value ([1]; brain, 0–20 min, n = 6 per time point) was 70 (ng/g) × min. For the same substance, the “AUC(0–20), heart” value ([1]; heart, 0–20 min, n = 6 per time point) was 845 (ng/g) × min, the “AUC(0–20), kidney” value ([1]; kidney, 0–20 min, n = 6 per time point) was 3437 (ng/g) × min and the “AUC(0–20), liver” value ([1]; liver, 0–20 min, n = 6 per time point) was 777 (ng/g) × min. For the same substance, the “AUC(0–20), omentum” value ([1]; omentum, 0–20 min, n = 6 per time point) was 395 (ng/g) × min, the “Time of first peak of HAEE concentration in tissues (bimodal relationship)” value [1, 3] was 4 min and the “Time of second peak of HAEE concentration in tissues (bimodal relationship)” value [1, 3] was 10 to 15 min. For the same substance, the “Visible toxic effects and abnormalities in animal behavior” value (rats) was “did not cause visible toxic effects and abnormalities in animal behavior”, the “Cmax (maximum concentration in the blood)” value ([2]; single i.v. bolus 50 μg/kg HAEE + [3H]HAEE, HPLC + liquid scintillation) was 73.9 ng/mL and the “AUC(0–∞)” value ([2]; single i.v. bolus 50 μg/kg) was 1383 (ng/mL) × min. For the same substance, the “T1/2(el) (elimination half-life)” value ([2]; single i.v. bolus 50 μg/kg) was 23 min, the Tmax ([2]; single i.v. bolus 50 μg/kg) was 4 min and the “Cmax (maximum concentration in the blood)” value ([2]; single i.v. bolus 300 μg/kg HAEE + [3H]HAEE, HPLC + liquid scintillation) was 439 ng/mL. The “AUC(0–∞)” value [2, 4] was 12,137 (ng/mL) × min, the “T1/2(el) (elimination half-life)” value [2, 4] was 29 min and the Tmax [2, 4] was 4 min. For the same substance, the “Cmax (maximum concentration in the blood)” value [2, 4] was 444 ng/mL, the “AUC(0–∞)” value ([2]; single i.v. bolus 300 μg/kg) was 11,340 (ng/mL) × min and the “T1/2(el) (elimination half-life)” value ([2]; single i.v. bolus 300 μg/kg) was 22 min. The Tmax ([2]; single i.v. bolus 300 μg/kg) was 4 min, the “Cmax (maximum concentration in the blood)” value ([2]; single i.v. bolus 900 μg/kg HAEE + [3H]HAEE, HPLC + liquid scintillation) was 1322 ng/mL and the “AUC(0–∞)” value ([2]; single i.v. bolus 900 μg/kg) was 47,133 (ng/mL) × min. The “T1/2(el) (elimination half-life)” value ([2]; single i.v. bolus 900 μg/kg) was 25 min, the Tmax ([2]; single i.v. bolus 900 μg/kg) was 4 min and the ClT [2, 5] was 6.7 to 13 mL/min. The MRT [2, 5] was 32 to 36 min, the “T1/2(el)” value [2, 5] was 22 to 25 min and the “ClT (total body clearance)” value [2, 6] was 13.0 mL/min. For the same substance, the “Kel (elimination rate constant, central compartment)” value (shortened to “Kel”) [2, 6] was 0.031 min⁻¹, the “MRT (residence time)” value [2, 6] was 33 min and the “Vd(c) (volume of distribution in the central compartment at Cmax)” value (“Vd(c)” for short) [2, 6] was 107 mL. The “Vd(extrap)” value [2, 6] was 504 mL, the “Vd(β) (volume of distribution in the elimination phase)” value (“Vd(β)” for short) [2, 6] was 425 mL and the “ClT (total body clearance)” value [2, 7] was 8.7 mL/min. The “Kel” value [2, 7] was 0.024 min⁻¹, the “MRT (residence time)” value [2, 7] was 42 min and the “Vd(c)” value [2, 7] was 111 mL. The “Vd(extrap)” value [2, 7] was 382 mL, the “Vd(β)” value [2, 7] was 362 mL and the “ClT (total body clearance)” value [2, 8] was 9.3 mL/min. For the same substance, the “Kel” value [2, 8] was 0.031 min⁻¹, the “MRT (residence time)” value [2, 8] was 32 min and the “Vd(c)” value [2, 8] was 122 mL. For the same substance, the “Vd(extrap)” value [2, 8] was 296 mL, the “Vd(β)” value [2, 8] was 299 mL and the “ClT (total body clearance)” value [2, 9] was 6.7 mL/min. The “Kel” value [2, 9] was 0.028 min⁻¹, the “MRT (residence time)” value [2, 9] was 36 min and the “Vd(c)” value [2, 9] was 108 mL. The “Vd(extrap)” value [2, 9] was 291 mL, the “Vd(β)” value [2, 9] was 237 mL and the “Effect of chronic administration on accumulation and pharmacokinetics” value ([2]; rats, 28 days daily 300 μg/kg then i.v. bolus 300 μg/kg, n = 6 vs intact rats n = 6) was “does not cause its accumulation in rats and does not affect the nature of its pharmacokinetics”.
